The text below walks through data of ChEMBL document CHEMBL6109064, “Functional and structural polypharmacology of indazole-based privileged ligands to tackle the undruggability of membrane transporters” (Eur J Med Chem, 2025).

One may read the IC50 as the midpoint of a concentration-inhibition curve.

Activity calls are given as the source filed them. The calls are words filed in the database; no cut-off is given here.

Holding throughout (format): cell-based
Data set [1] addresses ATP-dependent translocase ABCB1 (Homo sapiens, UniProt P08183). Briefly: Inhibition of ABCB1 in human A2780 ADR cells assessed as increase in calcein-AM fluorescence intensity using calcein-AM as tracer preincubated for 30 mins followed by calcein-AM addition and measured within 30 mins at 30s intervals by fluorescence based analysis.
Data set [2] has as its target T1, Broad substrate specificity ATP-binding cassette transporter ABCG2 (Homo sapiens, UniProt Q9UNQ0).
T1 sequence (Q9UNQ0 whole entry): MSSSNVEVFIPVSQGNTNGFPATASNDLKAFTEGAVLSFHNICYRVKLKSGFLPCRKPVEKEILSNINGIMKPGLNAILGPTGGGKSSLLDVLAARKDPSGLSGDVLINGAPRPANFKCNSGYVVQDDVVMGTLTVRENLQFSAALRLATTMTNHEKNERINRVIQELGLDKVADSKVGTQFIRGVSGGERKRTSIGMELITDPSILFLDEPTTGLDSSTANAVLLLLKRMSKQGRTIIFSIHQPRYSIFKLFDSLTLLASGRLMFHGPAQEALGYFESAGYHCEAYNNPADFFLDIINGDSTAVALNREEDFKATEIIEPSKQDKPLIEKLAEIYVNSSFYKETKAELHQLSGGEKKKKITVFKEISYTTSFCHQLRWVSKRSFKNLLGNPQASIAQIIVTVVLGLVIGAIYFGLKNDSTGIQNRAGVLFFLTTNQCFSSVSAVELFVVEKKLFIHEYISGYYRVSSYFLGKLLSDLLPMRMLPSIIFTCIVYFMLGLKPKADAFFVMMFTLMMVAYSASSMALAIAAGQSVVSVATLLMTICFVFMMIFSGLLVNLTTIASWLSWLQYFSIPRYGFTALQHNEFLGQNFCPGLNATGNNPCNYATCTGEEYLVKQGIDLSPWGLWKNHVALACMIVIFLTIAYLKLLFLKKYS
Briefly: Inhibition of ABCG2 (unknown origin) expressed in dog MDCK-II-BCRP cells assessed as increase in pheophorbide A fluorescence intensity using pheophorbide as tracer preincubated for 30 mins followed by pheophorbide addition and measured for 180 mins by flow cytometry. In general terms: In flow cytometry, cells or beads pass a laser one at a time.

The target of data set [3] is Sodium-dependent dopamine transporter (Homo sapiens) (UniProt Q01959). Briefly: Inhibition of DAT (unknown origin) expressed in HEK293 cells assessed as inhibition of MPP+ transport incubated for 5 mins by tandem mass spectrometry.
In data set [4] the target is T2, Solute carrier organic anion transporter family member 1B1 (Homo sapiens, UniProt Q9Y6L6).
T2 sequence (Q9Y6L6 whole entry): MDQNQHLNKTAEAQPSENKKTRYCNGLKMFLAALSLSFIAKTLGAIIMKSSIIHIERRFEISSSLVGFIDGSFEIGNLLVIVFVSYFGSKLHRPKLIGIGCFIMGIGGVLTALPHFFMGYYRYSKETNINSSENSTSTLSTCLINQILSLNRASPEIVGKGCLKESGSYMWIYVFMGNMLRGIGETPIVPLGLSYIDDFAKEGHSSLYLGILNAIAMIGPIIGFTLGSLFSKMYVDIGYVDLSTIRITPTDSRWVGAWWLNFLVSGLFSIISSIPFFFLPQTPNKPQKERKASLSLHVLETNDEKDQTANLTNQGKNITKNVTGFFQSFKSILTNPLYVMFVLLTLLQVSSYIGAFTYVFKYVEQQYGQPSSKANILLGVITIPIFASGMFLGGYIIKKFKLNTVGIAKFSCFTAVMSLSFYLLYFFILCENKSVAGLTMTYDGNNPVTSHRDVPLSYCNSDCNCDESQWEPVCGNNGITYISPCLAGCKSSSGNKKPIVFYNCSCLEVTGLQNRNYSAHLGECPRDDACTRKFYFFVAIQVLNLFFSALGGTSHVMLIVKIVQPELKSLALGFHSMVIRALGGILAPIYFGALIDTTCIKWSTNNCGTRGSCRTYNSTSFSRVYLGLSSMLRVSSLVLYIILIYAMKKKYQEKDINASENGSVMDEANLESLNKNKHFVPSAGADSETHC
The data set is described as follows: Inhibition of OATP1B1 (unknown origin) transfected in human A-431 cells assessed as inhibition of DHPDS uptake preincubated for 5 mins followed by DHPDS addition and measured after 10 mins by fluorescence based analysis.

The target in data set [5] is T3, Solute carrier family 22 member 1 (Homo sapiens, UniProt O15245).
T3 sequence (O15245 whole entry): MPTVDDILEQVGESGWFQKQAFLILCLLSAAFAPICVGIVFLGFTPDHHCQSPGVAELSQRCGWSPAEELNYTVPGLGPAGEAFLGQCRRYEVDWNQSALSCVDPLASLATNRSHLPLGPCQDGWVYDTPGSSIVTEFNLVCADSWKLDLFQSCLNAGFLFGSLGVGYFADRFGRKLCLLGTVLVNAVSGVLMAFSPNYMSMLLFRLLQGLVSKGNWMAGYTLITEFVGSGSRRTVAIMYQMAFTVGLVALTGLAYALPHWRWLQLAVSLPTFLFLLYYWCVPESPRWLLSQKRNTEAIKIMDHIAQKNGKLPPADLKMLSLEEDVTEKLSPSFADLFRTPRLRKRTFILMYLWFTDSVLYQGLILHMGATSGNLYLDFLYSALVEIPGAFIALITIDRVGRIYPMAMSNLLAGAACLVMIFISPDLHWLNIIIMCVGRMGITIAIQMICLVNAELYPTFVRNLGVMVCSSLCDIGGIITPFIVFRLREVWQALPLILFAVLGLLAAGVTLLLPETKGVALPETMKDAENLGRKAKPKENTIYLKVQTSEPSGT
Briefly: Inhibition of OCT1 (unknown origin) expressed in HEK293 cells assessed as inhibition of ASP+ uptake incubated for 5 mins by fluorescence based analysis. The following applies: hek293, 5 min.

Data set [6] has as its target T4, Solute carrier family 22 member 3 (Homo sapiens, UniProt O75751).
T4 sequence (O75751 whole entry): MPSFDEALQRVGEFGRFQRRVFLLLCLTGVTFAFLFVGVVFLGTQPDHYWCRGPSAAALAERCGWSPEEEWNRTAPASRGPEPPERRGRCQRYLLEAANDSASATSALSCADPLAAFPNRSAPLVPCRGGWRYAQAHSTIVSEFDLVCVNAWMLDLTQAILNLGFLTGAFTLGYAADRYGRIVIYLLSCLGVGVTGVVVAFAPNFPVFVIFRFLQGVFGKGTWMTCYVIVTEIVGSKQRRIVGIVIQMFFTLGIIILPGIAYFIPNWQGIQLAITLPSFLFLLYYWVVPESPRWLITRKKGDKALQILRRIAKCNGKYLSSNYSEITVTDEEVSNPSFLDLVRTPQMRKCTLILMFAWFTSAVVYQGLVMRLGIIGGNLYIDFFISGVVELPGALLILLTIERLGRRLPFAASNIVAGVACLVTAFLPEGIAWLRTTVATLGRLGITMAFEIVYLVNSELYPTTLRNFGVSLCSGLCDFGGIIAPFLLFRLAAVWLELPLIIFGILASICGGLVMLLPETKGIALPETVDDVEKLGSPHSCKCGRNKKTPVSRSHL
Briefly: Inhibition of OCT3 (unknown origin) expressed in HEK293 cells assessed as inhibition of ASP+ uptake incubated for 5 mins by fluorescence based analysis.

Sequence of ATP-dependent translocase ABCB1 (P08183 whole entry): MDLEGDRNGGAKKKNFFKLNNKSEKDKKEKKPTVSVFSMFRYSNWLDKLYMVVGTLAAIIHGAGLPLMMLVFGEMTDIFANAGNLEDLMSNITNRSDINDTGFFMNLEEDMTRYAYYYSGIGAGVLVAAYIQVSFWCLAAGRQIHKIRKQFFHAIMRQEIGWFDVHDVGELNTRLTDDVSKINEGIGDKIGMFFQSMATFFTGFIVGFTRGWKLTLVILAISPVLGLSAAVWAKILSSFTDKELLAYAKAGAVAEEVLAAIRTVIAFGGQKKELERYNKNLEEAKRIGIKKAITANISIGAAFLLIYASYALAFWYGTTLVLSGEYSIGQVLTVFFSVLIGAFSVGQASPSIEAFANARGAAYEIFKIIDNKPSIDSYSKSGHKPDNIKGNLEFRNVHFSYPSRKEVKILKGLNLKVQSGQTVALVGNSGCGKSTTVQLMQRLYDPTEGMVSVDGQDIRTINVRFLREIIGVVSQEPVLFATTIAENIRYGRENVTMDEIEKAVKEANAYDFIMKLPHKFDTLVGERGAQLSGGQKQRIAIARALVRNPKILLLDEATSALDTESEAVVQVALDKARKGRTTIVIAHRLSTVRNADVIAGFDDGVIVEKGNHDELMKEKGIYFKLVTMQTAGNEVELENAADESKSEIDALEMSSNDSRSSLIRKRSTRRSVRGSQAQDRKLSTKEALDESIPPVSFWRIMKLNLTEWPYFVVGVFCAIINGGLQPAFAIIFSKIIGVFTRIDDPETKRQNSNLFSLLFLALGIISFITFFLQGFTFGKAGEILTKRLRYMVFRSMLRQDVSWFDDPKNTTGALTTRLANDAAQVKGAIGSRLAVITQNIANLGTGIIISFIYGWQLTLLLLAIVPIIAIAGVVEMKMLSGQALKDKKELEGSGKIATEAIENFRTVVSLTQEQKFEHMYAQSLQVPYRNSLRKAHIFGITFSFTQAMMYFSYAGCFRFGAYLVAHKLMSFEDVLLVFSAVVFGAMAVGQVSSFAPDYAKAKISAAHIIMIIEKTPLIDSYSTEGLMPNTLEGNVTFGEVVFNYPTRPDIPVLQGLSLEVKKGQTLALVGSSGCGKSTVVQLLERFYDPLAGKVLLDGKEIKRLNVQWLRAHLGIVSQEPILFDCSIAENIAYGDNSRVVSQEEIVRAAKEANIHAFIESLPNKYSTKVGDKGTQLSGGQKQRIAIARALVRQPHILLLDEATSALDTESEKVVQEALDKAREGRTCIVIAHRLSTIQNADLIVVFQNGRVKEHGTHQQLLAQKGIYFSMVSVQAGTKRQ
Sequence of Sodium-dependent dopamine transporter (Homo sapiens) (Q01959 whole entry): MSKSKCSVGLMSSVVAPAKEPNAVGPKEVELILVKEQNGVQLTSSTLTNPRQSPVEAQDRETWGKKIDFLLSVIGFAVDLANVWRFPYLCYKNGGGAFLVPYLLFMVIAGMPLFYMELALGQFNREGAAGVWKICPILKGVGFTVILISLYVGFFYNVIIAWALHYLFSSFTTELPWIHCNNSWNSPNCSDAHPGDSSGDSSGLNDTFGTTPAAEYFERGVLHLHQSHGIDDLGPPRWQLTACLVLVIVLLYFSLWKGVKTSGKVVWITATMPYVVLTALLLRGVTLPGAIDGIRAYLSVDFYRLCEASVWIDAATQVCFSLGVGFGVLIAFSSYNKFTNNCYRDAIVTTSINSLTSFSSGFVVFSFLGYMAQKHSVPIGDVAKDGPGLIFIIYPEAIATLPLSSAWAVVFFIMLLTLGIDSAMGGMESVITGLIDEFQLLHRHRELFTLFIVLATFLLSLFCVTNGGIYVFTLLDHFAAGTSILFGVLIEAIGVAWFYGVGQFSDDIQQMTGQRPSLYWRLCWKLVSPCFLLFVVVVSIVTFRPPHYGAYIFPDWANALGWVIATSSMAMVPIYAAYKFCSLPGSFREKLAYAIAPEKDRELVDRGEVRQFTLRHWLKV

Regarding `COc1cccc(NC(=O)Cn2nc(C(=O)Nc3cccc(OC)c3)c3ccccc32)c1`, the IC50 was 1.1 µM in data set [1], 1.33 µM in data set [2], 4.96 µM in data set [4] and “Not_active” in data set [6] (hek293). In data set [3], the inhibition entry was “inactive”. Further, in data set [5], the “inhibition (INH)” value is on record as “Not_active”.
Take `O=C(Cn1nc(C(=O)Nc2cccnc2)c2ccccc21)Nc1ccc(Cl)cc1`: the IC50 is 6.12 µM in data set [1], 14.2 µM in data set [2], 17.9 µM in data set [4] and 111 µM in data set [6] (read-out: IC50). Besides, in data set [3], the inhibition result was “inactive”. The “inhibition (INH)” value in data set [5] is listed as “Not_active”.
`COc1cccc(NC(=O)c2nn(CC(=O)Nc3ccccc3OC)c3ccccc23)c1`: the half-maximal inhibitory concentration (IC50) was 1.56 µM in data set [1], 1.66 µM in data set [2], 5.66 µM in data set [4] and 76.4 µM in data set [6] (read-out: IC50). The inhibition result in data set [3] is “inactive”. Besides, the “inhibition (INH)” value in data set [5] is given as “Not_active”.
For `O=C(Cn1nc(C(=O)Nc2ccccn2)c2ccccc21)Nc1cc(Cl)ccc1Cl`, the IC50 was 0.626 µM in data set [1], 1.17 µM in data set [2], 16.8 µM in data set [4] and “Not_active” in data set [6] (hek293). For the same compound, the inhibition entry in data set [3] is “inactive”. In addition, in data set [5], the “inhibition (INH)” value was “Not_active”.
